{"source": "patent US20210040134A1", "about": "“COMBINATIONS OF MACROLIDE COMPOUNDS AND IMMUNE CHECKPOINT INHIBITORS” (ISR IMMUNE SYSTEM REGULATION HOLDING AB (PUBL), priority 2018, published 2021)", "key": {"[1]": {"test_system": "macrophages", "experiment": "Cytokine secretion from macrophages (cytometric bead assay)", "assay_type": "cell-based, human", "description": "FIG. 10: Interferon-gamma secretion (as measured by cytometric bead assay) from macrophages stimulated with indicated compound for 48 h.\n(§1) FIG. 11: Chemokine RANTES secretion (as measured by cytometric bead assay) from PBMC or macrophages stimulated with indicated compound for 48 h.\n(§2) FIG. 12: IL12p70 secretion (as measured by cytometric bead assay) from PBMC or macrophages stimulated with indicated compound for 48 h.\n(§3) FIG. 13: IL1 b secretion (as measured by cytometric bead assay) from PBMC, macrophages or CD4 T cells stimulated with indicated compound for 48 h.\nStudy 9: Macrophages from healthy donors where exposed to compounds 1 or 2 for 48 hours. […] Compound 1 is therefore able to induce IFN-gamma secretion in macrophages from healthy donors.\n(§4) Study 10: PBMCs and macrophages where exposed to compounds 1 or 2 for 2 days (FIG. 11).\n(§5) Study 11: PBMCs and macrophages where exposed to compounds 1 and 2 for 2 days.\n(§6) Study 12: PBMCs, macrophages and CD4+ T cells where exposed to compounds 1 and 2 for 2 days."}, "[2]": {"test_system": "C57bl/6 mice", "experiment": "MHC class I expression on CD11b+ splenocytes of mice after i.v. injection", "assay_type": "in vivo", "conditions": "spleen removed 24 h later", "description": "FIG. 15: % MHC class I high CD11 b+ cells in spleen of 3 individual C57bl/6 mice injected 24 h previously with indicated compound. MHC class I and CD11 b expression was measured by flow cytometry.\nStudy 14: Compound 1 or 2 was administered i.v. to C57bl/6 mice."}, "[3]": {"test_system": "PBMCs", "experiment": "Cytokine secretion from PBMCs (cytometric bead assay)", "assay_type": "cell-based, human", "conditions": "2 days", "description": "as §1, §2, §3, §4, §5, §6"}, "[4]": {"test_system": "E. coli, S. salivarius, L. casei, B. longum, M. luteus", "experiment": "MIC assay, summary over all bacterial strains tested", "assay_type": "cell-based", "conditions": "any of the strains tested", "description": "The bioactivity of macrolide compounds against 4 strains of common gut bacteria (Escherichia coli, Streptococcus salivarius subsp. salivarius, Lactobacillus casei and Bifidobacterium longum subsp. infantis) and common mammalian skin isolate Micrococcus luteus, was assessed using the Minimum Inhibitory Concentration (MIC) assay. Bacterial strains were purchased from DSMZ (Brunswick, Germany) except M. luteus which was obtained from NCIMB, and stored in 20% glycerol at −80° C. Stock solutions (100% DMSO) of positive controls (azithromycin and erythromycin), and of test compounds 1 and 2 were diluted in broth to working stock concentrations of 256 μg/ml (final assay testing concentration range 128 μg/ml to 0.00391 μg/ml). Stock solutions of all other compounds were diluted in broth to working stock concentrations of 128 μg/ml (final assay testing concentration range 64 μg/ml to 0.00195 μg/ml). Bacterial strains were cultivated in appropriate broth in an anaerobic chamber at 37° C., except for M. luteus which was incubated aerobically at 37° C. 18 h cultures were diluted in broth to an OD595 of 0.1 and then further diluted 1:10. In 96-well plates, in duplicate, 200 μl working stock of test compound was transferred to well 1 and serially diluted (1:2) in broth. 100 μl bacterial suspension was aliquoted into each well and mixed thoroughly. Appropriate sterility controls were included and plates were incubated in an anaerobic chamber, or aerobically (M. luteus) at 37° C. for 18 h. The MIC was determined to be the concentration of test compound in the first well with no visible growth."}, "[5]": {"test_system": "Caco-2 cell monolayers", "experiment": "Caco-2 bidirectional permeability assay", "assay_type": "in vitro ADME", "conditions": "Caco-2, 10 μM test article, 90 minutes", "description": "(§7) 10 μM Test article was added to the apical (A) surface of Caco-2 cell monolayers (in HBSS buffer with 0.3% DMSO and 5 μM LY at 37 degrees C.) and compound permeation into the basolateral (B) compartment measured following 90 minutes incubation. This was also performed in the reverse direction (basolateral to apical) to investigate active transport. LC-MS/MS is used to quantify levels of both the test and standard control compounds. Efflux ratio was calculated by dividing the B to A permeability by the A to B permeability.\n(§8) Drug permeability:Papp=(VA/(Area×time))×([drug]accepter/(([drug]initial,donor)×Dilution Factor)\n(§9) The permeability of the compounds of the invention was assessed in a standard caco-2 bidirectional permeability assay (see general methods)."}, "[6]": {"experiment": "Caco-2 bidirectional permeability assay", "assay_type": "in vitro ADME", "conditions": "human, Caco-2; B to A permeability divided by A to B permeability", "description": "as §7, §8, §9"}, "[7]": {"experiment": "Human microsome stability assay", "assay_type": "in vitro ADME", "conditions": "pH 7.4, human liver microsomes, read-out: T½", "description": "Rate of metabolism in microsomes was tested as follows:\nHuman liver microsomes were diluted with buffer C (0.1 M Potassium Phosphate buffer, 1.0 mM EDTA, pH 7.4) to a concentration of […]. Microsomal stability studies were carried out by adding 30 μL of 1.5 μM compound spiking solution to wells (1.5 μL of 500 μM spiking solution (10 μL of 10 mM DMSO stock solution into 190 μL ACN to eventually generate final test concentration of 1 uM) and 18.75 μL of 20 mg/mL liver microsomes into 479.75 μL of Buffer C). All samples were pre-incubated for approximately 15 minutes at 37° C. Following this, the reaction was initiated by adding 15 μL of the NADPH solution (6 mM) with gentle mixing. Aliquots (40 μL) were removed at 0, 5, 15, 30 and 45 minutes and quenched with ACN containing internal standard (135 μL). Protein was removed by centrifugation (4000 rpm, 15 min) and the sample plate analysed for compound concentration by LC-MS/MS. Half-lives were then calculated by standard methods, comparing the concentration of analyte with the amount originally present.\nThe metabolic stability of the compounds of the invention was assessed in a standard human microsome stability assay (see general methods)."}, "[8]": {"biological_target": "T1, human TLR2 (Homo sapiens, UniProt O60603)", "T1 construct": "host or cells: recombinant HEK-293-TLR cell lines", "T1 sequence (O60603 21-784)": "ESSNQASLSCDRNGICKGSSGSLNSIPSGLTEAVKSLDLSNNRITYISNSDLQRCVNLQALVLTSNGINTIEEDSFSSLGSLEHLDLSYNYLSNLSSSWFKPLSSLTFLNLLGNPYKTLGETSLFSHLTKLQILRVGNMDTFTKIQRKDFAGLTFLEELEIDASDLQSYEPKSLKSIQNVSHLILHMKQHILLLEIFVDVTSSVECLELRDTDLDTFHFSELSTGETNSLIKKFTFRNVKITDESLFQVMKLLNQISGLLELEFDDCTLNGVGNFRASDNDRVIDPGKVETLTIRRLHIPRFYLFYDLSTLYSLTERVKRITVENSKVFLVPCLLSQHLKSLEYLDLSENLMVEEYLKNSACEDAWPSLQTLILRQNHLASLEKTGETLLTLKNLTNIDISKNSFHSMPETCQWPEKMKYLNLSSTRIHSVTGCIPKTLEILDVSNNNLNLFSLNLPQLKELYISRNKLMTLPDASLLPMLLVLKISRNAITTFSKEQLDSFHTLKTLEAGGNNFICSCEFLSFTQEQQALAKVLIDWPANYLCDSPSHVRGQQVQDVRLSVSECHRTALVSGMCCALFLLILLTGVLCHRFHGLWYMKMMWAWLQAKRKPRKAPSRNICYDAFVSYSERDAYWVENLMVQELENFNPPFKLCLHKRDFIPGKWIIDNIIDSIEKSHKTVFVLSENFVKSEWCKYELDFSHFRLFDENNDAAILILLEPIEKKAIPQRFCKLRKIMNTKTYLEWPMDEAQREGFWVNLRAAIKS", "experiment": "TLR2 reporter assay (HEK-293-TLR, SEAP)", "assay_type": "cell-based", "conditions": "concentrations up to 20 uM", "description": "Samples and controls were tested in duplicate on recombinant HEK-293-TLR cell lines using a cell reporter assay at Invivogen using their standard assay conditions. These cell lines functionally over-express human TLR2 protein as well as a reporter gene which is a secreted alkaline phosphatase (SEAP). The production of this reporter gene is driven by an NFkB inducible promoter. The TLR reporter cell lines activation results are given as optical density values (OD).\n20 μl of each test article were used to stimulate the hTLR2 reporter cell lines in a 200 μl of final reaction volume. Samples were tested in duplicate, with at least two concentrations tested—20 uM and 10 uM.\nCompounds were tested using a TLR2 reporter assay (see general methods) that measured for stimulation of the TLR2 receptor. Stimulatory effect was measured as an increase in optical density (OD) due to release of secreted alkaline phosphatase (SEAP) and is shown in table 4: […]"}, "[9]": {"test_system": "CD4+ T cells", "experiment": "IL-1 beta secretion from CD4+ T cells (cytometric bead assay)", "assay_type": "cell-based, human", "conditions": "2 days", "description": "as §3, §6"}}}
{"compound": "CC[C@H]1OC(=O)[C@H](C)[C@@H](O[C@H]2C[C@@H](N(C)C)[C@H](O)[C@@H](C)O2)[C@H](C)[C@@H](O)[C@](C)(O)C[C@@H](C)CN(C)[C@H](C)[C@@H](O)[C@]1(C)O", "note": "[Compound 1]", "values": [{"measurement": "IL-1 beta secretion in macrophages", "setting": "[1]; 2 days", "value": "increased"}, {"measurement": "IL-12p70 secretion from macrophages", "setting": "[1]; 2 days", "value": "secreted IL-12p70"}, {"measurement": "IFN-gamma secretion from macrophages", "setting": "[1]; 48 hours", "value": "secreted IFN-gamma"}, {"measurement": "splenocyte cells with high MHC I expression (CD11b+)", "setting": "[2]", "value": "induced an increase"}, {"measurement": "IL-1 beta secretion in PBMCs", "setting": "[3]", "value": "slightly"}, {"measurement": "IL-12p70 secretion from PBMCs", "setting": "[3]", "value": "secreted IL-12p70"}, {"measurement": "antibacterial activity against the bacterial strains tested (in words)", "setting": "[4]", "value": "no antibacterial activity"}, {"measurement": "Papp", "setting": "[5]", "value": "0.32 × 10^6/cm · s^−1"}, {"measurement": "efflux ratio at 90 minutes, 10 μM", "setting": "[6]", "value": 63}, {"measurement": "half-life at 1 uM", "setting": "[7]", "value": 1.8, "unit": "h"}, {"measurement": "TLR2 stimulation (in words)", "setting": "[8]", "value": "stimulated TLR2 at concentrations down to 5 uM"}, {"measurement": "IL-1 beta secretion in CD4+ T cells", "setting": "[9]", "value": "no IL-1 beta was induced"}]}
